Data published in patent EP4624465A1, “COMPOUND SERVING AS DDR1 KINASE INHIBITOR, AND MEDICINE” (Nippon Shinyaku Co., Ltd., priority 2022, dated 2024).
Counter-ions that a name gives are not always drawn.

biological target: DDR1 kinase (Homo sapiens, UniProt Q08345); experiment: Evaluation of DDR1 kinase inhibition (LANCE Ultra TR-FRET kinase assay); type: biochemical; parameters: purchased Carna Biosciences 08-113; settings: DDR1 protein 0.5 nM, LANCE Ultra ULight-poly GAT substrate, 2 hours at room temperature, duplicate; read-out: DDR-1 IC50
Sequence (Q08345 19-876 isoform Q08345-2 limits assumed): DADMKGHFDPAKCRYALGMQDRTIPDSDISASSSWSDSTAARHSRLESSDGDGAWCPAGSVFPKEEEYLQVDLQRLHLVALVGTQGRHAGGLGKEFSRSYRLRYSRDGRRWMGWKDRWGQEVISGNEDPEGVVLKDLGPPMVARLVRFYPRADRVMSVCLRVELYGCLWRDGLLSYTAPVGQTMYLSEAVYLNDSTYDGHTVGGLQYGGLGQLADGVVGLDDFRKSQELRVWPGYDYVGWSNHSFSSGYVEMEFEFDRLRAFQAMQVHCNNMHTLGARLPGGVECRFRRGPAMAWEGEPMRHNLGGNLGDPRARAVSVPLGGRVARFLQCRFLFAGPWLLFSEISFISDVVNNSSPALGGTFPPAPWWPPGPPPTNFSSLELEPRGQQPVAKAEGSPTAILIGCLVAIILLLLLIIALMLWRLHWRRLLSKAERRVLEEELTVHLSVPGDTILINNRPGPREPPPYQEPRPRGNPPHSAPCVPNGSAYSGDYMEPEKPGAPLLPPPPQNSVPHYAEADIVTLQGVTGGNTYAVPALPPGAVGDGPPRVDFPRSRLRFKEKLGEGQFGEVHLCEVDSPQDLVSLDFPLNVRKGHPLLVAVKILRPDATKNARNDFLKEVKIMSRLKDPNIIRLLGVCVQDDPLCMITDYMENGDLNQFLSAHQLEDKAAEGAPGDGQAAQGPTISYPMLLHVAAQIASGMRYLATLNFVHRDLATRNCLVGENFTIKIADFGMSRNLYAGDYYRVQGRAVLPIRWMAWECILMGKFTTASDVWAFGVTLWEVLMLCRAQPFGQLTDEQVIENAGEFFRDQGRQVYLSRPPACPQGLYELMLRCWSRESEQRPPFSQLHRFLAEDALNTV

SMILES	IC50 [nM]
Nc1cc(C(=O)N2CC(c3nn(CC(=O)NCC(F)(F)F)c4cccc(Cl)c34)C2)ccn1 [Compound E-62, 2-{3-[1-(2-aminopyridine-4-carbonyl)azetidin-3-yl}-4-chloro-1H-indazol-1-yl}-N-(2,2,2-trifluoroethyl)acetamide]	9.3
CN(CC(F)(F)F)C(=O)Cn1nc(C2CN(C(=O)c3ccnc(N)n3)C2)c2cc(F)ccc21 [Compound E-293, 2-{3-[1-(2-aminopyrimidine-4-carbonyl)azetidin-3-yl]-5-fluoro-1H-indazol-1-yl]-N-methyl-N-(2,2,2-trifluoroethyl)acetamide]	26
Nc1cc(C(=O)N2CC(c3nn(CC(=O)N4CCC[C@H]4C(F)(F)F)c4ccccc34)C2)c(Cl)cn1 [Compound E-210, 2-{3-[1-(2-amino-5-chloropyridine-4-carbonyl)azetidin-3-yl]-1H-indazol-1-yl]-1-[(2S)-2-(trifluoromethyl)pyrrolidin-1-yl]ethan-1-one]	3.5
CN(C(=O)Cn1nc(C2CN(C(=O)c3cc(N)ncc3F)C2)c2ccccc21)C(C)(C)C [Compound E-268, 2-{3-[1-(2-amino-5-fluoropyridine-4-carbonyl)azetidin-3-yl]-1H-indazol-1-yl}-N-tert-butyl-N-methylacetamide]	3.9
Cc1ccc2c(c1)c(C1CN(C(=O)c3cc(N)ncc3F)C1)nn2CC(=O)N1CCC[C@H]1C(F)(F)F [Compound E-201, 2-{3-[1-(2-amino-5-fluoropyridine-4-carbonyl)azetidin-3-yl]-5-methyl-1H-indazol-1-yl}-1-[(28)-2-(trifluoromethyl)pyrrolidin-1-yl]ethan-1-one]	1.7
Nc1cc(C(=O)N2CC(c3nn(CC(=O)NCCOC(F)(F)F)c4ccccc34)C2)ccn1 [Compound E-227, 2-{3-[1-(2-aminopyridine-4-carbonyl)azetidin-3-yl)-1H-indazol-1-yl}-N-[2-(trifluoromethoxy)ethyl]acetamide]	60
COCC(C)(C)NC(=O)Cn1nc(C2CN(C(=O)c3ccnc(N)c3)C2)c2ccccc21 [Compound E-208]	170
Nc1cc(C(=O)N2CC(c3nn(Cc4noc(-c5ccccc5F)n4)c4cccc(F)c34)C2)ccn1 [Compound E-148, 4-[3-(4-fluoro-1-i[5-(2-fluorophenyl)-1,2,4-oxadiazol-3-yl]methyl}-1H-indazol-3-yl)azetidine-1-carbonyllpyridin-2-amine]	1.9
Cc1nc(N)sc1C(=O)N1CCC(c2nn(CC(=O)N3CCC[C@H]3C(F)(F)F)c3cccc(F)c23)CC1 [Compound E-119, 2-{3-[1-(2-amino-4-methyl-1,3-thiazole-5-carbonyl)piperidin-4-yl]-4-fluoro-1H-indazol-1-yl}·1-[(2S)-2-(trifluoromethyl)pyrrolidin-1-yl]ethan-1-one]	4.4
Nc1cc(C(=O)N2CC(c3nn(Cc4nc(-c5ccncc5)no4)c4cccc(F)c34)C2)ccn1 [Compound E-138, 4-[3-(4-fluoro-1-{(S-(pyridin-4-yl)-1,2,4-oxadiazol-5-yl]methyl}-1H-indazol-3-yl)azetidine-1-carbonyl]pyridin-2-amine]	50
CC[C@@H]1CCCN1C(=O)Cn1nc(C2CN(C(=O)c3ccnc(N)c3)C2)c2ccccc21 [Compound E-222, 2-{3-[1-(2-aminopyridine-4-carbonyl)azetidin-3-yl)-1H-indazol-1-yl}-1-[(2R)-2-ethylpyrrolidin-1-yl]ethan-1-one]	2.1
Nc1cc(C(=O)N2CCC(c3nn(CC(=O)N4CCC[C@H]4C(F)(F)F)c4cccc(F)c34)CC2)c(F)cn1 [Compound E-174, 2-{3-[1-(2-amino-5-fluoropyridine-4-carbonyl)piperidin-4-yl]-4-fluoro-1H-indazol-1-yl}-1-[(2S)-2-(trifluoromethyl)pyrrolidin-1-yl]ethan-1-one]	1.1
Cc1[nH]ncc1C(=O)N1CC(c2nn(CC(=O)N3CCC[C@H]3C(F)(F)F)c3cc(F)cc(F)c23)C1 [Compound E-165, 2-{4,6-difluoro-3-[1-(5-methyl-1H-pyrazole-4-carbonyl)azetidin-3-yl]-1H-indazol-1-yl}-1-[(28)-2-(trifluoromethyl)pyrrolidin-1-yl]ethan-1-one]	29
O=C(c1ccncc1Cl)N1CC(c2nn(CC(=O)N3CCC[C@H]3C(F)(F)F)c3cc(F)cc(F)c23)C1 [Compound E-143, 2-{3-[1-(3-chloropyridine-4-carbonyl)azetidin-3-yl]-4,6-difluoro-1H-indazol-1-yl}-1-[(28)-2-(trifluoromethyl)pyrrolidin-1-yl]ethan-1-one]	4.1
CC(C)(NC(=O)Cn1nc(C2CN(C(=O)c3ccnc(N)c3)C2)c2ccccc21)C1CC1 [Compound E-234, 2-{3-[1-(2-aminopyridine-4-carbonyl)azetidin-3-yl]-1H-indazol-1-yl}-N-(2-cyclopropylpropan-2-yl)acetamide]	7.9
O=C(Cn1nc(C2CN(C(=O)c3ccnc(NC4COC4)c3)C2)c2c(F)cc(F)cc21)NCC(F)(F)F [Compound E-32, 2-[4,6-difluoro-3-(1-{2-[(oxetan-3-yl)amino]pyridine-4-carbonyl}azetidin-3-yl)-1H-indazol-1-yl]-N-(2,2,2-trifluoroethyl)acetamide]	160
Nc1cc(C(=O)N2CC(c3nn(Cc4cn(CC(F)(F)F)nn4)c4cccc(F)c34)C2)ccn1 [Compound E-52, 4-[3-(1-{[1-(2,2,2-trifluoroethyl)-1H-1,2,3-triazol-4-yl]methyl]-4-fluoro-1H-indazol-3-yl)azetidine-1-carbonyl]pyridin-2-amine hydrochloride]	43
Nc1nccc(C(=O)N2CC(c3nn(CC(=O)N4CCO[C@@H](C(F)(F)F)C4)c4ccccc34)C2)n1 [Compound E-215, 2-{3-[1-(2-aminopyrimidine-4-carbonyl)azetidin-3-yl]-1H-indazol-1-yl}-1-[(2R)-2-(trifluoromethyl)morpholin-4-yl]ethan-1-one]	56
Nc1cc(C(=O)N2CC(c3nn(CC(=O)N4CCC5(COC5)C4)c4ccccc34)C2)c(F)cn1 [Compound E-232, 2-{3-[1-(2-amino-5-fluoropyridine-4-carbonyl)azetidin-3-yl]-1H-indazol-1-yl}-1-{2-oxa-6-azaspiro[3.4]octan-6-yl}ethan-1-one]	38
Cc1nc(N)sc1C(=O)N1CC(c2nn(CC(=O)N3CCOCC3(C)C)c3ccccc23)C1 [Compound E-7, 2-{3-[1-(2-amino-4-methyl-1,3-thiazole-5-carbonyl)azetidin-3-yl]-1H-indazol-1-yl}-1-(3,3-dimethylmorpholin-4-yl)ethan-1-one]	15

Further compounds by falling IC50, results first:

IC50 [nM]	SMILES
220	Nc1cc(C(=O)N2CC(c3nn(Cc4nc(-c5ccncc5F)no4)c4cncc(F)c34)C2)ccn1 [Compound E-170]
140	Nc1cc(C(=O)N2CC(c3nn(Cc4noc(-c5ccc(F)cn5)n4)c4cccc(F)c34)C2)ccn1 [Compound E-153, 4-{3-(4-fluoro-1-{[5-(5-fluoropyridin-2-yl)-1,2,4-oxadiazol-3-yl]methyl}-1H-indazol-3-yl)azetidine-1-carbonyl]pyridin-2-amine]
54	CO[C@H]1CCN(C(=O)Cn2nc(C3CN(C(=O)c4cc(N)ncc4F)C3)c3ccccc32)C1 [Compound E-230, 2-{3-[1-(2-amino-5-fluoropyridine-4-carbonyl)azetidin-3-yl]-1H-indaaol-1-yl}-1-[(3S)-3-methoxypyrrolidin-1-yl]ethan-1-one]
9.9	Nc1cc(C(=O)N2CCC(c3nn(CC(=O)N4CCC[C@H]4C(F)(F)F)c4ccccc34)CC2)c(F)cn1 [Compound E-49, 2-{3-[1-(2-amino-5-fluoropyridine-4-carbonyl)piperidin-4-yl]-1H-indazol-1-yl}-1-[(2S)-2-(trifluoromethyl)pyrrolidin-1-yl]ethan-1-one]
2.1	CC1(C)COCCN1C(=O)Cn1nc(C2CN(C(=O)c3cc(N)ncc3F)C2)c2c(F)cc(F)cc21 [Compound E-177, 2-{3-[1-(2-amino-5-fluoropyridine-4-carbonyl)azetidin-3-yl)-4,6-difluoro-1H-indazol-1-yl}-1-(3,3-dimethylmorpholin-4-yl)ethan-1-one]
1.6	Nc1cc(C(=O)N2CC(c3nn(CC(=O)N4CCC[C@H]4C(F)(F)F)c4ccc(Cl)cc34)C2)ccn1 [Compound E-207, 2-{3-[1-(2-aminopyridine-4-carbonyl)azetidin-3-yl]-6-chloro-1H-indazol-1-yl}-1-[(28)-2-(trifluoromethyl)pyrrolidin-1-yl]ethan-1-one]
1.6	Nc1cc(C(=O)N2CC(c3nn(CC(=O)N4CCO[C@@H](C(F)(F)F)C4)c4ccc(Cl)cc34)C2)ccn1 [Compound E-205, 2-{3-[1-(2-aminopyridine-4-carbonyl)azetidin-3-yl]-5-chloro-1H-indazol-1-yl}-1-[(2R)-2-(trifluoromethyl)morpholin-4-yl]ethan-1-one]
0.8	O=C(c1ccc2[nH]ncc2c1)N1CC(c2nn(CC(=O)N3CCC[C@H]3C(F)(F)F)c3cc(F)cc(F)c23)C1 [Compound E-140, 2-{4,6-difluoro-3-[1-(1H-indazole-5-carbonyl)azetidin-3-yl]-1H-indazol-1-yl}-1-[(28)-2-(trifluoromethyl)pyrrolidin-1-yl]ethan-1-one]
0.6	CC1(C)COCCN1C(=O)Cn1nc(C2CN(C(=O)c3cc(N)ncc3F)C2)c2ccccc21 [Compound E-187, 2-{3-[1-(2-amino-5-fluoropyridine-4-carbonyl)azetidin-3-yl]-1H-indazol-1-yl}-1-(3,3-dimethylmorpholin-4-yl)ethan-1-one]
0.5	Nc1cc(C(=O)N2CC(c3nn(CC(=O)N4CCC[C@H]4COC(F)(F)F)c4cc(F)cc(F)c34)C2)c(F)cn1 [Compound E-175, 2-{3-[1-(2-amino-5-fluoropyridine-4-carbonyl)azetidin-3-yl]-4,6-difluoro-1H-indazol-1-yl}-1-[(2S)-2-[(trifluoromethoxy)methyl]pyrrolidin-1-yl]ethan-1-one]
0.3	Nc1cc(C(=O)N2CC(c3nn(Cc4noc(C5(C(F)(F)F)CC5)n4)c4cccc(F)c34)C2)ccn1 [Compound E-147]
